Values after ≈ are worked out from the molar mass of the structure shown. Like-named read-outs stand apart in the source and are kept apart here.
Assays:
[1] = system: S. aureus GC 6469; test: MIC, broth microdilution; settings: Staphylococcus aureus, GC6469, S. aureus GC 6469
[2] = system: c. albicans GC 3066; test: MIC, broth microdilution
[3] = system: E. faecium GC 4556; test: MIC, broth microdilution; settings: Enterococcus faecium, GC4556, E. faecium GC 4556
[4] = system: E. coli GC 6465; test: MIC, broth microdilution; settings: Escherichia coli, GC6465, E. coli GC 6465
Procedure: Antimicrobial susceptibility testing. The in vitro activities of the antibiotics are determined by the broth microdilution method as recommended by the National Committee for Clinical Laboratory Standards (NCCLS) (1). Mueller-Hinton II broth (MHBII)(BBL Cockeysville, Md.) is the medium employed in the testing procedures. Microtiter plates containing serial dilutions of each antimicrobial agent are inoculated with each organism to yield the appropriate density (10^5 CFU/ml) in a 100 μl final volume. The plates are incubated for 18-22 hours at 35° C. in ambient air.
Representative compounds were first incubated in mouse serum for an hour prior to the in vitro testing against a panel of selected gram-positive and gram-negative bacteria strains. All compounds were also pre-incubated in water for an hour prior to testing as control.

[5] = system: E. faecium GC 2243; test: MIC, broth microdilution; settings: Enterococcus faecium, GC2243, E. faecium GC 2243
[6] = system: E. coli GC 2235; test: MIC, broth microdilution; settings: Escherichia coli, GC2235, E. coli GC 2235
[7] = system: S. aureus GC 4536; test: MIC, broth microdilution; settings: Staphylococcus aureus, GC4536, S. aureus GC 4536
[8] = system: E. coli GC 2270; test: MIC, broth microdilution; settings: Escherichia coli, GC2270, E. coli GC 2270
[9] = system: S. aureus GC 1079; test: MIC, broth microdilution; settings: Staphylococcus aureus, GC1079, S. aureus GC 1079
[10] = system: S. typhimurium GC 2172; test: MIC, broth microdilution; settings: Salmonella enterica, TYPHIMURIUM, S. typhimurium GC 2172
[11] = system: S. aureus GC 6466; test: MIC, broth microdilution; settings: Staphylococcus aureus, GC6466, S. aureus GC 6466
[12] = system: S. aureus GC 6467; test: MIC, broth microdilution; settings: Staphylococcus aureus, GC6467, S. aureus GC 6467
[13] = system: S. aureus GC 2216; test: MIC, broth microdilution; settings: Staphylococcus aureus, GC2216, S. aureus GC 2216
[14] = system: E. coli GC 1073; test: MIC, broth microdilution; settings: Escherichia coli, GC1073, E. coli GC 1073
[15] = system: E. coli GC 2233; test: MIC, broth microdilution; settings: Escherichia coli, GC2233, E. coli GC 2233
[16] = system: Staph.; test: Range of MIC for Staph. strains, including MRSA; settings: Staphylococcus aureus, MRSA
[17] = system: E. faecalis GC 2242; test: MIC, broth microdilution; settings: Enterococcus faecalis, GC2242, E. faecalis GC 2242
[18] = system: E. coli GC 4560; test: MIC, broth microdilution; settings: Escherichia coli, GC4560, E. coli GC 4560
[19] = system: E. coli GC 2231; test: MIC, broth microdilution; settings: Escherichia coli, GC2231, E. coli GC 2231
[20] = c. albicans GC 3066, Water pre-incubation
[21] = read-out: Range of MIC, Staph (Mouse Serum)
[22] = read-out: Range of MIC, Staph (Water)

Row | Compound | MIC ([1]; Mouse Serum pre-incubation) | MIC ([1]; Water pre-incubation) | MIC ([2]; Candida albicans, GC3066) | MIC [2, 20] | MIC ([3]; Mouse Serum pre-incubation) | MIC ([3]; Water pre-incubation) | MIC ([4]; Mouse Serum pre-incubation) | MIC ([4]; Water pre-incubation) | MIC ([5]; Mouse Serum pre-incubation) | MIC ([5]; Water pre-incubation) | MIC ([6]; Mouse Serum pre-incubation) | MIC ([6]; Water pre-incubation) | MIC ([7]; Mouse Serum pre-incubation) | MIC ([7]; Water pre-incubation) | MIC ([8]; Mouse Serum pre-incubation) | MIC ([8]; Water pre-incubation) | MIC ([9]; Mouse Serum pre-incubation) | MIC ([9]; Water pre-incubation) | MIC ([10]; Mouse Serum pre-incubation) | MIC ([10]; Water pre-incubation) | also measured
1 | CCCN(CC(=O)Nc1cc(N(C)C)c2c(c1O)C(=O)C1=C(O)[C@]3(O)C(=O)C(C(N)=O)=C(O)[C@@H](N(C)C)[C@@H]3C[C@@H]1C2)C(=O)OCc1ccccc1 [Example 14, benzyl 2-{[(5aR,6aS,7S,10aS)-9-(aminocarbonyl)-4,7-bis(dimethylamino)-1,8,10a,11-tetrahydroxy-10,12-dioxo-5,5a,6,6a,7,10,10a,12-octahydrotetracen-2-yl]amino}-2-oxoethyl(propyl)carbamate] | 2 mg/L (≈ 2.83 µM) | 4 mg/L (≈ 5.67 µM) | > 64 mg/L | >64 UG/ML | 4 mg/L (≈ 5.67 µM) | 8 mg/L (≈ 11.3 µM) | > 64 mg/L | > 64 mg/L | 2 mg/L (≈ 2.83 µM) | 4 mg/L (≈ 5.67 µM) | 32 mg/L (≈ 45.3 µM) | 64 mg/L (≈ 90.7 µM) | 2 mg/L (≈ 2.83 µM) | 2 mg/L (≈ 2.83 µM) | > 64 mg/L | > 64 mg/L | 1 mg/L (≈ 1.42 µM) | 2 mg/L (≈ 2.83 µM) | > 64 mg/L | > 64 mg/L | MIC ([11]; Mouse Serum pre-incubation): 2 mg/L (≈ 2.83 µM); MIC ([11]; Water pre-incubation): 8 mg/L (≈ 11.3 µM); MIC ([12]; Mouse Serum pre-incubation): 2 mg/L (≈ 2.83 µM); MIC ([12]; Water pre-incubation): 4 mg/L (≈ 5.67 µM); MIC ([13]; Mouse Serum pre-incubation): 2 mg/L (≈ 2.83 µM); MIC ([13]; Water pre-incubation): 4 mg/L (≈ 5.67 µM); MIC ([14]; Mouse Serum pre-incubation): > 64 mg/L; MIC ([14]; Water pre-incubation): > 64 mg/L; MIC ([15]; Mouse Serum pre-incubation): > 64 mg/L; MIC ([15]; Water pre-incubation): > 64 mg/L; MIC [16, 21]: 1 to 8 mg/L (≈ 1.42 to 11.3 µM); MIC [16, 22]: 2 to 8 mg/L (≈ 2.83 to 11.3 µM); MIC ([17]; Mouse Serum pre-incubation): 2 mg/L (≈ 2.83 µM); MIC ([17]; Water pre-incubation): 8 mg/L (≈ 11.3 µM); MIC ([18]; Mouse Serum pre-incubation): 4 mg/L (≈ 5.67 µM); MIC ([18]; Water pre-incubation): 4 mg/L (≈ 5.67 µM); MIC ([19]; Mouse Serum pre-incubation): > 64 mg/L; MIC ([19]; Water pre-incubation): > 64 mg/L
2 | CCCN(CC(=O)Nc1cc(N(C)C)c2c(c1O)C(=O)C1=C(O)[C@]3(O)C(=O)C(C(N)=O)=C(O)[C@@H](N(C)C)[C@@H]3C[C@@H]1C2)C(=O)OCC [Example 15, ethyl 2-{[(5aR,6aS,7S,10aS)-9-(aminocarbonyl)-4,7-bis(dimethylamino)-1,8,10a,11-tetrahydroxy-10,12-dioxo-5,5a,6,6a,7,10,10a,12-octahydrotetracen-2-yl]amino}-2-oxoethyl(propyl)carbamate] | 4 mg/L (≈ 6.21 µM) | 8 mg/L (≈ 12.4 µM) | > 64 mg/L | >64 UG/ML | 8 mg/L (≈ 12.4 µM) | 8 mg/L (≈ 12.4 µM) | > 64 mg/L | > 64 mg/L | 8 mg/L (≈ 12.4 µM) | 8 mg/L (≈ 12.4 µM) | 32 mg/L (≈ 49.7 µM) | 32 mg/L (≈ 49.7 µM) | 2 mg/L (≈ 3.11 µM) | 4 mg/L (≈ 6.21 µM) | 64 mg/L (≈ 99.4 µM) | 64 mg/L (≈ 99.4 µM) | 2 mg/L (≈ 3.11 µM) | 4 mg/L (≈ 6.21 µM) | > 64 mg/L | > 64 mg/L | MIC ([11]; Mouse Serum pre-incubation): 2 mg/L (≈ 3.11 µM); MIC ([11]; Water pre-incubation): 4 mg/L (≈ 6.21 µM); MIC ([12]; Mouse Serum pre-incubation): 16 mg/L (≈ 24.9 µM); MIC ([12]; Water pre-incubation): 16 mg/L (≈ 24.9 µM); MIC ([13]; Mouse Serum pre-incubation): 2 mg/L (≈ 3.11 µM); MIC ([13]; Water pre-incubation): 4 mg/L (≈ 6.21 µM); MIC ([14]; Mouse Serum pre-incubation): > 64 mg/L; MIC ([14]; Water pre-incubation): > 64 mg/L; MIC ([15]; Mouse Serum pre-incubation): > 64 mg/L; MIC ([15]; Water pre-incubation): > 64 mg/L; MIC [16, 21]: 2 to 16 mg/L (≈ 3.11 to 24.9 µM); MIC [16, 22]: 4 to 16 mg/L (≈ 6.21 to 24.9 µM); MIC ([17]; Mouse Serum pre-incubation): 8 mg/L (≈ 12.4 µM); MIC ([17]; Water pre-incubation): 8 mg/L (≈ 12.4 µM); MIC ([18]; Mouse Serum pre-incubation): 1 mg/L (≈ 1.55 µM); MIC ([18]; Water pre-incubation): 1 mg/L (≈ 1.55 µM); MIC ([19]; Mouse Serum pre-incubation): > 64 mg/L; MIC ([19]; Water pre-incubation): > 64 mg/L
3 | CCCN(CC(=O)Nc1cc(N(C)C)c2c(c1O)C(=O)C1=C(O)[C@]3(O)C(=O)C(C(N)=O)=C(O)[C@@H](N(C)C)[C@@H]3C[C@@H]1C2)C(=O)OCC(C)C [Example 16, isobutyl 2-{[(5aR,6aS,7S,10aS)-9-(aminocarbonyl)-4,7-bis(dimethylamino)-1,8,10a,11-tetrahydroxy-10,12-dioxo-5,5a,6,6a,7,10,10a,12-octahydrotetracen-2-yl]amino}-2-oxoethyl(propyl)carbamate] | 4 mg/L (≈ 5.95 µM) | 8 mg/L (≈ 11.9 µM) | > 64 mg/L | >64 UG/ML | 4 mg/L (≈ 5.95 µM) | 8 mg/L (≈ 11.9 µM) | > 64 mg/L | > 64 mg/L | 4 mg/L (≈ 5.95 µM) | 8 mg/L (≈ 11.9 µM) | 16 mg/L (≈ 23.8 µM) | 64 mg/L (≈ 95.3 µM) | 2 mg/L (≈ 2.98 µM) | 4 mg/L (≈ 5.95 µM) | > 64 mg/L | > 64 mg/L | 2 mg/L (≈ 2.98 µM) | 4 mg/L (≈ 5.95 µM) | > 64 mg/L | > 64 mg/L | MIC ([11]; Mouse Serum pre-incubation): 4 mg/L (≈ 5.95 µM); MIC ([11]; Water pre-incubation): 8 mg/L (≈ 11.9 µM); MIC ([12]; Mouse Serum pre-incubation): 8 mg/L (≈ 11.9 µM); MIC ([12]; Water pre-incubation): 8 mg/L (≈ 11.9 µM); MIC ([13]; Mouse Serum pre-incubation): 2 mg/L (≈ 2.98 µM); MIC ([13]; Water pre-incubation): 4 mg/L (≈ 5.95 µM); MIC ([14]; Mouse Serum pre-incubation): > 64 mg/L; MIC ([14]; Water pre-incubation): > 64 mg/L; MIC ([15]; Mouse Serum pre-incubation): > 64 mg/L; MIC ([15]; Water pre-incubation): > 64 mg/L; MIC [16, 21]: 2 to 8 mg/L (≈ 2.98 to 11.9 µM); MIC [16, 22]: 4 to 8 mg/L (≈ 5.95 to 11.9 µM); MIC ([17]; Mouse Serum pre-incubation): 8 mg/L (≈ 11.9 µM); MIC ([17]; Water pre-incubation): 8 mg/L (≈ 11.9 µM); MIC ([18]; Mouse Serum pre-incubation): 2 mg/L (≈ 2.98 µM); MIC ([18]; Water pre-incubation): 4 mg/L (≈ 5.95 µM); MIC ([19]; Mouse Serum pre-incubation): > 64 mg/L; MIC ([19]; Water pre-incubation): > 64 mg/L
